ChEMBL document CHEMBL5465560, “Selectivity Literature for EUbOPEN Chemogenomic Library” (2024)

Assays:
[1] = target: Mast/stem cell growth factor receptor Kit (Homo sapiens, UniProt P10721)
[2] = target: Cyclin-dependent kinase 17 (Homo sapiens) (UniProt Q00537); test: Selectivity interaction (ActivX KiNativ screen (kinase selectivity in THP-1 cell lysates)) EUB0000639a CDK17; format: subcellular; settings: lysate
[3] = target: Tyrosine-protein kinase Yes (Homo sapiens) (UniProt P07947); test: Selectivity interaction (SelectScreen profiling (Invitrogen)) EUB0000607a YES1; settings: at 2 µM
Sequence of Tyrosine-protein kinase Yes (Homo sapiens) (P07947 2-543 limits assumed): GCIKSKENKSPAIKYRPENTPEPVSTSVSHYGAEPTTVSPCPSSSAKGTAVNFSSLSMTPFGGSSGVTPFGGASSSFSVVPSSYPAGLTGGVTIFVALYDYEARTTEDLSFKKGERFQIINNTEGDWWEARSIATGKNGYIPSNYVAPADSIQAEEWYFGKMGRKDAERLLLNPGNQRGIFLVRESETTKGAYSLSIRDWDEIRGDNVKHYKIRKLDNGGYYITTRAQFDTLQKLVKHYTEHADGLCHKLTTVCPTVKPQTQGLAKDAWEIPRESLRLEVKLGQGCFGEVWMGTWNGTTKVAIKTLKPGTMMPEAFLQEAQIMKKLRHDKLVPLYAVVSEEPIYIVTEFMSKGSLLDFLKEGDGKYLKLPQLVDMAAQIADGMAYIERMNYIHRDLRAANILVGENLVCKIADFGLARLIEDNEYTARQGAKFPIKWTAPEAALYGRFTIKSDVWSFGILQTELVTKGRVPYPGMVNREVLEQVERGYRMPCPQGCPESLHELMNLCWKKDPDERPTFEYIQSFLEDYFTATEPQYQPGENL

[4] = target: T1, Ephrin type-A receptor 6 (Homo sapiens) (UniProt Q9UF33); test: Selectivity interaction (Ambit KINOMEscan and KiNATiv profiling in Jurkat cells) EUB0000090b EPHA6; format: cell-based; settings: at 1 µM
T1 sequence (whole entry): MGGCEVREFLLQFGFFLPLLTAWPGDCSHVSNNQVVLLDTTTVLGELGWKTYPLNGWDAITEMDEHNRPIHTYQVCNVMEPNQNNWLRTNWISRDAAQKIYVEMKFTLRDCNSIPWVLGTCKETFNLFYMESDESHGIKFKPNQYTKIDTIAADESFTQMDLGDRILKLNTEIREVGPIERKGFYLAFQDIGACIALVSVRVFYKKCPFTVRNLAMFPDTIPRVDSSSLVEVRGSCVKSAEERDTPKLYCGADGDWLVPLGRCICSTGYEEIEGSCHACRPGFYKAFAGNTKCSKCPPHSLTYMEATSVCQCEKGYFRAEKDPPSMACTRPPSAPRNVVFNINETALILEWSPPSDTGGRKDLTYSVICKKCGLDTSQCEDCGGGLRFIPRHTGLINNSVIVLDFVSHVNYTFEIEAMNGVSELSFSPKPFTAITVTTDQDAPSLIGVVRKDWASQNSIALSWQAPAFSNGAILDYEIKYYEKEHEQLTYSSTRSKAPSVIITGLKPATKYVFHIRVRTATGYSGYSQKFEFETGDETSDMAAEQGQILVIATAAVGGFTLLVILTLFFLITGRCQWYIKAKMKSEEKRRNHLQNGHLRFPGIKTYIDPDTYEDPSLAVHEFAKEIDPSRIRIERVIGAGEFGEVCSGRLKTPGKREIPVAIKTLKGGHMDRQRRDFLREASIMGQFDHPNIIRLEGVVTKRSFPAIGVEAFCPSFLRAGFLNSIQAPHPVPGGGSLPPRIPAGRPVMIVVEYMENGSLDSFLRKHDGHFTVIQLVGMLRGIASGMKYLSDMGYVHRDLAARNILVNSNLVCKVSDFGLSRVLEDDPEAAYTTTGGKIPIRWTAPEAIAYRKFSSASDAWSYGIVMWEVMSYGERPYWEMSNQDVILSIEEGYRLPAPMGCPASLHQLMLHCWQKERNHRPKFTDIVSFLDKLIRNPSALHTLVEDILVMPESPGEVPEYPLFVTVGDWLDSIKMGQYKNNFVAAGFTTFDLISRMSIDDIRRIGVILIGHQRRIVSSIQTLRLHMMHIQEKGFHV

[5] = target: T2, Serine/threonine-protein kinase STK11 (Homo sapiens) (UniProt Q15831); test: Selectivity interaction (KinomeScan (DiscoverX)) EUB0001619a STK11; settings: at 1 µM
T2 sequence (whole entry): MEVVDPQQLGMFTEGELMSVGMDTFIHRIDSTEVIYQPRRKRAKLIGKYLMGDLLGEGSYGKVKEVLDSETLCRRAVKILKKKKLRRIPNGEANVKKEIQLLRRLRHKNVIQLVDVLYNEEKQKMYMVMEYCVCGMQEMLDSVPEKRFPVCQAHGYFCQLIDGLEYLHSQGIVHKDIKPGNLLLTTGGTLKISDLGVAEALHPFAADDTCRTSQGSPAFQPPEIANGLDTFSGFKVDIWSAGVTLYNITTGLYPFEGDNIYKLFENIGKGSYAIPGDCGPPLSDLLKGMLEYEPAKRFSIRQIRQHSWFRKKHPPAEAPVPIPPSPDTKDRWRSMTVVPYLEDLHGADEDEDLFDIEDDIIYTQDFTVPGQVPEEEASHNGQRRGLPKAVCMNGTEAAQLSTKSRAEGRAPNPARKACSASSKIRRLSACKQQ

[6] = target: T3, Inhibitor of nuclear factor kappa-B kinase subunit beta (Homo sapiens) (UniProt O14920); test: Selectivity interaction (KinomeScan (DiscoverX)) EUB0001619a IKBKB; settings: at 1 µM
T3 sequence (whole entry): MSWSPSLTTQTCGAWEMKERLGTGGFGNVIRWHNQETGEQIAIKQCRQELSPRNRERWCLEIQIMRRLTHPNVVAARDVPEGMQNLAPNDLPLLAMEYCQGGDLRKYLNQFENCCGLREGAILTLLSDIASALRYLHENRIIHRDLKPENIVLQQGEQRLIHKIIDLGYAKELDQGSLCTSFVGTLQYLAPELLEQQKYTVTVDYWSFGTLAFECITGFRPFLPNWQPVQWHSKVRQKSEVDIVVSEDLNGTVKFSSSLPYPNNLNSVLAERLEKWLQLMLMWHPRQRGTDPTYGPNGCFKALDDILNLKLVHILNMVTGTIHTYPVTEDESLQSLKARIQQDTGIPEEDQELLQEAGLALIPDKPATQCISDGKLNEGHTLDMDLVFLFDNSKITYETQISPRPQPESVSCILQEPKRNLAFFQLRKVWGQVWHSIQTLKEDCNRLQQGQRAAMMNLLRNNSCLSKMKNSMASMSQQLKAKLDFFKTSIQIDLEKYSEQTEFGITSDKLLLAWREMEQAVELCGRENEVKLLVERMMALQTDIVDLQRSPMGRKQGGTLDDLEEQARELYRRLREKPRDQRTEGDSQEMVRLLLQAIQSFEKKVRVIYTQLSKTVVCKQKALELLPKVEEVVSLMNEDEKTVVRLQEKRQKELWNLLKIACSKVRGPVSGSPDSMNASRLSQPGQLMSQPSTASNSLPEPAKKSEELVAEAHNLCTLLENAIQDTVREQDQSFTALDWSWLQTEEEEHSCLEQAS

Sequence of Cyclin-dependent kinase 17 (Homo sapiens) (Q00537 whole entry, looked up): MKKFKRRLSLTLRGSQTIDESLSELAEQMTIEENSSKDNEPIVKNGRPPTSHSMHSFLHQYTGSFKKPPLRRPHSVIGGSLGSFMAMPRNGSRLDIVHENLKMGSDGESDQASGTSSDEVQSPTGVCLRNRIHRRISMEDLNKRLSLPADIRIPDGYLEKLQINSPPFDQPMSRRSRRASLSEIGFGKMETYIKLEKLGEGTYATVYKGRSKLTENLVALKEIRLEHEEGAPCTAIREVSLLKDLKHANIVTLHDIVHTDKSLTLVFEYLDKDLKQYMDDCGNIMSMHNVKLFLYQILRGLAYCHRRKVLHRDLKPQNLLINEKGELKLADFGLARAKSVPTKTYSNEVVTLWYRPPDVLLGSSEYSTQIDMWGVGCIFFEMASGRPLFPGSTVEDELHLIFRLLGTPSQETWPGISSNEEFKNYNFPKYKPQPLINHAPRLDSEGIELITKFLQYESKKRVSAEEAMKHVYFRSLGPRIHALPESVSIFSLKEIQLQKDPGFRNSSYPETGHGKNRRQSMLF
Sequence of Mast/stem cell growth factor receptor Kit (P10721 whole entry): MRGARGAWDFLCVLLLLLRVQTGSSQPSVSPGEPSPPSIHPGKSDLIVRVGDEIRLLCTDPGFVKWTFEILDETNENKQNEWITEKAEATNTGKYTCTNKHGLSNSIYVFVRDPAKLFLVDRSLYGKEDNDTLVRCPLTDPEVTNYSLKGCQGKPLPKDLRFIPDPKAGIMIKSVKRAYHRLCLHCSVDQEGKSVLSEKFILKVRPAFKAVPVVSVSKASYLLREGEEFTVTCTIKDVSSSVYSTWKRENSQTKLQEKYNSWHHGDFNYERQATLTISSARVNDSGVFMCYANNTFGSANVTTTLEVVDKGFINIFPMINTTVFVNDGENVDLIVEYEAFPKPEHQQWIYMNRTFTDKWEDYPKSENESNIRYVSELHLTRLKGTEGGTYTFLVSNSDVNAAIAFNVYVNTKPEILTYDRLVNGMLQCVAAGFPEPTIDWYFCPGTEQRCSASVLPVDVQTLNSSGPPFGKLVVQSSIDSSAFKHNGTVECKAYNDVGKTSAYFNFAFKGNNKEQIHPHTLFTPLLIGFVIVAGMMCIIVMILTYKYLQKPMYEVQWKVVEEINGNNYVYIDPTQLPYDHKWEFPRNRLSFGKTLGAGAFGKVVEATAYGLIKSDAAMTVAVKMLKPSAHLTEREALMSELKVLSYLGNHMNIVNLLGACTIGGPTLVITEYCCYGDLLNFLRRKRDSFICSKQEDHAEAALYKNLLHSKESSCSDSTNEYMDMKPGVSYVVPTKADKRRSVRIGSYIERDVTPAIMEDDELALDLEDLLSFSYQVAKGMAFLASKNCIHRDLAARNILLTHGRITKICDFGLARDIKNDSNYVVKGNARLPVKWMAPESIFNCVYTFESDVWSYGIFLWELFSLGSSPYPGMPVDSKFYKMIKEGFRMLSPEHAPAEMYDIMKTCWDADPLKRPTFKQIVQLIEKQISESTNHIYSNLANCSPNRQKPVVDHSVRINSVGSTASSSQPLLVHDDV

CCc1cccc(CC)c1NC(=O)c1nn(C)c2c1CCc1cnc(Nc3ccc(C(=O)NC4CCN(C)CC4)cc3OC(F)(F)F)nc1-2
IC50 [1]: > 10 µM

CC[C@@H]1[C@H](F)C(=O)N[C@@H]1COc1nccc2cc(C(N)=O)c(OC)cc12 [ZIMLOVISERTIB]
% of inhibition ([2]; at 0.01 µM): -4.8%
% of inhibition ([2]; at 0.04 µM): -2.9%
% of inhibition ([2]; at 0.2 µM): 2.8%
% of inhibition ([2]; at 1 µM): 6%
% of inhibition ([2]; at 5 µM): 5.6%

CNC(=O)Nc1ccc(-c2nc(N3CC4CCC(C3)O4)c3cnn(C4CCC5(CC4)OCCO5)c3n2)cc1
% of inhibition [3]: 2%

CN(C)C/C=C/C(=O)Nc1ccc(C(=O)N2CCCC(Nc3ncc(Cl)c(-c4c[nH]c5ccccc45)n3)C2)cc1 (stereo not given)
% of control [4]: 93%

N#Cc1cccc(-c2c[nH]c3ncnc(N4CCOCC4)c23)c1
% of control [5]: 100%
% of control [6]: 90%
